Experimental data from patent US20250382346A1, “NEURONAL PROMOTERS AND USES THEREOF” (priority 2023, published 2025).

Key:
[1] = Locomotion test in naïve macaques (no viral injection); assay type: in vivo; details: naive macaques, n=3, not significant
rM3Ds = molecular target: T1, rM3Ds (Rattus norvegicus, UniProt P08483, A177S/A238G/A489L/DEL261-437/DEL441-478/E258S/I253V/I483M/INS256[…]/K178L/K182A/K255R/K484R/K486H/L173F/L482A/M480V/R171S/R176Q/R179M/S481M/T174R/T181R/T257A/Y148C); experiment: In vivo electrophysiological recording in caudate/putamen of anesthetized macaques, rM3Ds; set-up: 2A-EYFP (C); expressed in transfected cells; host or cells: neurons (striatal D1-MSNs) of mice or cynomolgus macaques, transduced in vivo by nigral AAV8R12-G88P7-rM3Ds-2A-EYFP
T1 sequence (P08483 with tags, fused parts or gaps Y148C/R171S/L173F/T174R/R176Q/A177S/K178L/R179M/T181R/K182A/A238G/I253V/K255R/INS256[…]/T257A/E258S/DEL261-437/DEL441-478/M480V/S481M/L482A/I483M/K484R/K486H/A489L): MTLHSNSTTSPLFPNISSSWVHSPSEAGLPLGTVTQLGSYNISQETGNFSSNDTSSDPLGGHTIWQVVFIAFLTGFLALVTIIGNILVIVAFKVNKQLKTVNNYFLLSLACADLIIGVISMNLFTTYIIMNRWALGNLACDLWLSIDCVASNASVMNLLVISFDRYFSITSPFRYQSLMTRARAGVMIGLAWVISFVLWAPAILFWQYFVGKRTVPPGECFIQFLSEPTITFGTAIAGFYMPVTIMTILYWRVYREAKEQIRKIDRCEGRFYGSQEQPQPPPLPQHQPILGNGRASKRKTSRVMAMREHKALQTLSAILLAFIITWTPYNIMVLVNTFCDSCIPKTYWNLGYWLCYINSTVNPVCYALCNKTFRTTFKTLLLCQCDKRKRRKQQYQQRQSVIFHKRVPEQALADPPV
Experimental: • Electrophysiological recording was performed through a recording chamber while the monkey was anesthetized. Neural responses were recorded by a 16-channel linear probe (Plexon Inc, Uprobe) driven by a mechanical microdrive (Alpha Omega, FlexMT). Signals were passed through a head stage (Plexon Inc, HST/16V-G20 LN) and then split and filtered between 300 Hz and 5 kHz to identify spiking activity with an amplifier system (Plexon Inc, OmniPlex). Detected spikes were then sorted by commercially available software (Plexon Inc, Offline Sorter) for further analysis. To quantify the effect of CNO/DCZ injection, neural activity was recorded for 60 minutes following CNO/DCZ injection. The response time-course for each channel was obtained by counting the spikes within every 10-minute window and then normalizing to the maximal.
To determine the effect of CNO/DCZ injection on the direction of signal change, we performed Pearson correlation between neural responses and time using the ‘corr’ function in Matlab, which generates the correlation coefficient ‘r’ and significant level ‘p’. A neuron was considered to have “Increased” activity when r>0 and p<0.05; and considered to have “Decreased” activity when r<0 and p<0.05. Otherwise, neurons were considered to be “Unchanged” in their neural activities. The responses of all increased neurons were then averaged after being normalized by the maximal response (Crowe et al., 2014; Dai and Wang, 2018; Hirokawa et al., 2019) following CNO/DCZ injection, and then plotted as a function of time to generate the normalized population response.
To enable in-vivo verification of the strategy via an opto-tagging approach, AAV virus encoding opsin ChR2 (AAV9-EF1α-DIO-ChR2-EYFP) was injected into the striatum with simultaneous nigral infusion of a retrograde AAV encoding Cre and rM3Ds (AAV8R12-G88P7-HA-rM3Ds-2A-Cre). A total volume of 27 μl (3 μl×9 sites) and 30 μl (3 μl×10 sites) were injected in the SNr and the striatum, respectively. A recording chamber was implanted above the striatum to allow optical stimulation and electrophysiological recording.
Optogenetic verification was conducted six weeks after virus injections. A 16-channel linear probe with an embedded optic fiber (Plexon Inc., Uprobe) was used to deliver light stimulation and record neural responses. A mechanical Microdrive (FlexMT, Alpha Omega, Nazareth, Israel) was used to mount and drive the probe. A blue laser (473 nm, Changchun New Industries Tech, MBL-III-473) was used to generate light stimulation, which was controlled by a DAQ board (National Instruments, PCIe-6321) through the MonkeyLogic toolbox (NIMH version).
Light pulses of 40 Hz that last for 500 ms were used to probe neurons' responses to optical stimulation. […] Responses from these optically identified cells were grouped to generate the normalized population response as a function of time.

[2] = monkey CM048, 38 cells, intramuscular CNO

## C[N+]1([O-])CCN(C2=Nc3cc(Cl)ccc3Nc3ccccc32)CC1 [CNO, Clozapine-N-oxide]
[1]; saline 0.767±0.4296
  percentage of contraversive and ipsiversive rotation (FIG. 11C), mean±SEM: 0.8384±0.4152
[1]; saline 39.07±5.889
  speed of contraversive rotations (FIG. 11G), mean±SEM: 39.63±7.092
[1]; saline 41.49±3.96
  speed of ipsiversive rotations (FIG. 11H), mean±SEM: 42.79±4.705
[1]; saline 53.12±15.3
  total distance (FIG. 11F), mean±SEM: 59.48±18.65
[1]; saline 55.73±2.64
  time spending in the higher portion of the observing cages (FIG. 11D), mean±SEM: 60.43±4.542
[1]; saline 149.9±21.61
  immobile time (FIG. 11E), mean±SEM: 149.8±22.65
rM3Ds; 38 total cells, CNO administrations, saline 20%
  cells in caudate/putamen activated (FIG. 12N): 50%
rM3Ds; 38 total cells, CNO administrations, saline 26.7%
  cells in caudate/putamen unchanged (FIG. 12N): 36.8%
rM3Ds; 38 total cells, CNO administrations, saline 53.3%
  cells in caudate/putamen inactivated (FIG. 12N): 13.2%
rM3Ds; AAV8R12-G88P7-HA-rM3Ds-2A-Cre plus AAV9-EF1α-DIO-ChR2-EYFP, intramuscular CNO, anesthetized macaques
  neuronal activity of opto-tagged retrogradely labeled D1-MSNs: effectively induced an increase of neuronal activity in retrogradely labeled D1-MSNs
rM3Ds; MPP+ lesioned macaques, CNO 36 cells, DCZ 31 cells, saline 17.9%
  cells in caudate/putamen activated (FIG. 15G): 52.8%
rM3Ds; MPP+ lesioned macaques, CNO 36 cells, DCZ 31 cells, saline 33.4%
  cells in caudate/putamen inactivated (FIG. 15G): 13.9%
rM3Ds; MPP+ lesioned macaques, CNO 36 cells, DCZ 31 cells, saline 48.7%
  cells in caudate/putamen unchanged (FIG. 15G): 33.3%
rM3Ds; [2]
  cells in caudate activated (FIG. 12F): 65.8%
  cells in caudate inactivated (FIG. 12F): 7.9%
  cells in caudate unchanged (FIG. 12F): 26.3%
